By pEC50 is commonly meant the EC50 on a negative log10 scale, so that one unit is a factor of ten. The low end stands for a large EC50, the high end for a small EC50.

pEC50: −log10 of the molar value. Some results are limits rather than exact numbers.

Holding throughout (assay type): cell-based, murine and human
Holding throughout (conditions): GAL4-PPAR LBD chimera

For one test, the target named is T1, PPAR-alpha (UniProt Q07869).
T1 sequence (Q07869 1-468): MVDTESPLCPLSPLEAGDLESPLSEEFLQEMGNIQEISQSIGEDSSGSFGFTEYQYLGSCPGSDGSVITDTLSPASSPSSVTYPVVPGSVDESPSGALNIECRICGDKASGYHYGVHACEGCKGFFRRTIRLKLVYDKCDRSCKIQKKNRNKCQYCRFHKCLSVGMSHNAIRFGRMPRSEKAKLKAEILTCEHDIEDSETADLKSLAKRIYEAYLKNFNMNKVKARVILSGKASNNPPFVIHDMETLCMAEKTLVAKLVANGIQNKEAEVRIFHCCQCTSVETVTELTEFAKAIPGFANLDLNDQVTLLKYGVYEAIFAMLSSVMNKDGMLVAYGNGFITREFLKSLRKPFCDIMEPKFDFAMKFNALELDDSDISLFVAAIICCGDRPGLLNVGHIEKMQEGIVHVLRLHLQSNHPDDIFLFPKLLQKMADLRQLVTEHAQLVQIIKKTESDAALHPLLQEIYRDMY
The experiment in a line: PPAR-alpha transactivation assay (GAL4 chimera, luciferase reporter) in CV-1 cells. From the text:
(§1) Compounds may be screened for functional potency in transient transfection assays in CV-1 cells for their ability to activate the PPAR subtypes (transactivation assay). A previously established chimeric receptor system was utilized to allow comparison of the relative transcriptional activity of the receptor subtypes on the same synthetic response element and to prevent endogenous receptor activation from complicating the interpretation of results. See, for example, Lehmann, J. M.; Moore, L. B.; Smith-Oliver, T. A; Wilkinson, W. O.; Willson, T. M.; Kliewer, S. A., An antidiabetic thiazolidinedione is a high affinity ligand for peroxisome proliferator-activated receptor […], J. Biol. Chem., 1995, 270, 12953-6. The ligand binding domains for murine and human PPAR-alpha, PPAR-gamma, and PPAR-delta are each fused to the yeast transcription factor GAL4 DNA binding domain. CV-1 cells were transiently transfected with expression vectors for the respective PPAR chimera along with a reporter construct containing four or five copies of the GAL4 DNA binding site driving expression of luciferase. After 8-16 h, the cells are replated into multi-well assay plates and the media is exchanged to phenol-red free DME medium supplemented with 5% delipidated calf serum. 4 hours after replating, cells were treated with either compounds or 1% DMSO for 20-24 hours. Luciferase activity was then assayed with Britelite (Perkin Elmer) following the manufacturer's protocol and measured with either the Perkin Elmer Viewlux or Molecular Devices Acquest (see, for example, Kliewer, S. A., et. al. Cell 1995, 83, 813-819). Rosiglitazone is used as a positive control in the PPARγ assay. Wy-14643 and GW7647 are used as positive controls in the PPARα assay. GW501516 is used as the positive control in the PPARδ assay.
(§2) Compounds of Examples 1-141 were assayed to measure their biological activity with respect to their EC50 values for modulating PPAR-alpha, PPAR-gamma, and PPAR-delta as set forth in Table 1.
A general note: Reporter assays use an easily measured gene product as a stand-in for the process of interest.

Another test concerns the target T2, PPAR-delta (UniProt Q03181).
T2 sequence (Q03181 1-441): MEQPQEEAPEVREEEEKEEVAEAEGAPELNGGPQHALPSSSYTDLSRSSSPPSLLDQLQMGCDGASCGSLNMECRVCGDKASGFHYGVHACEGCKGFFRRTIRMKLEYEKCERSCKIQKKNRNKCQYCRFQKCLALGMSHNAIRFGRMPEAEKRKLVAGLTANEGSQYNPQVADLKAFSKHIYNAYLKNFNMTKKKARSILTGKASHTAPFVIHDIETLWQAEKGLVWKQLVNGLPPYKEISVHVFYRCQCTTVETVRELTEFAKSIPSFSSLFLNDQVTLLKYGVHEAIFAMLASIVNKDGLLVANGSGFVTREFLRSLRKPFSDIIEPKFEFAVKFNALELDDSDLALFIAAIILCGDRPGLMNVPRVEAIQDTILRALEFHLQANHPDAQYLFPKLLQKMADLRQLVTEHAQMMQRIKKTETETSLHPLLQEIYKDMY
In words: PPAR-delta transactivation assay (GAL4 chimera, luciferase reporter) in CV-1 cells.
Text: as §1, §2

In another test the target is T3, PPAR-gamma (UniProt P37231).
T3 sequence (P37231 1-505): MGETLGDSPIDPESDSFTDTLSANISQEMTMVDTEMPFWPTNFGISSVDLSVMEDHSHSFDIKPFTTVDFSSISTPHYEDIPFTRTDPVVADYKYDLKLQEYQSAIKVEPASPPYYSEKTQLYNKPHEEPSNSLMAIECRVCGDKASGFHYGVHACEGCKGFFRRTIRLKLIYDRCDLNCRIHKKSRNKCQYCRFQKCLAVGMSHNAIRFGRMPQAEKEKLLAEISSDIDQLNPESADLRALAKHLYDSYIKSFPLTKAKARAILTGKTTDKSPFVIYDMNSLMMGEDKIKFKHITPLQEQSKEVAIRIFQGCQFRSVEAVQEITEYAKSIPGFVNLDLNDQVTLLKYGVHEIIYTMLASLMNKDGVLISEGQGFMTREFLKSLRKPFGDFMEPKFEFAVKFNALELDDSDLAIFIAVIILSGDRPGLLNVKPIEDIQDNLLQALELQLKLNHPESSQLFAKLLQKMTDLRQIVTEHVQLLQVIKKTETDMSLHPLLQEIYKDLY
In words: PPAR-gamma transactivation assay (GAL4 chimera, luciferase reporter) in CV-1 cells.
Text: as §1, §2

In the case of `O=C(O)C1Cc2ccc(S(=O)(=O)N3CCN(c4cccc(C(F)(F)F)c4)CC3)cc2C1` (stereo not drawn) [Example 15, 5-[4-(3-trifluoromethyl-phenyl)-piperazine-1-sulfonyl]-indan-2-carboxylic acid], the pEC50 at PPAR-alpha, at PPAR-delta and at PPAR-gamma was 4.00 to 5.30 throughout.

As to `O=C(O)C1Cc2cccc(S(=O)(=O)N3CCN(c4cccc(C(F)(F)F)c4)CC3)c2C1` (stereo not drawn) [Example 16, 4-[4-(3-trifluoromethyl-phenyl)-piperazine-1-sulfonyl]-indan-2-carboxylic acid], the figures for the pEC50 at PPAR-alpha, at PPAR-delta and at PPAR-gamma were 4.00 to 5.30, > 5.30 and 4.00 to 5.30, respectively.

Take `O=C(O)C1Cc2ccc(S(=O)(=O)N3CC=C(c4ccc(C(F)(F)F)cc4)CC3)cc2C1` (stereo not drawn) [Example 17, 5-[4-(4-trifluoromethyl-phenyl)-3,6-dihydro-2H-pyridine-1-sulfonyl]-indan-2-carboxylic acid]: the pEC50 at PPAR-alpha, on PPAR-delta and at PPAR-gamma was 4.00 to 5.30 each time.

For the compound `O=C(O)C1Cc2cccc(S(=O)(=O)N3CC=C(c4ccc(C(F)(F)F)cc4)CC3)c2C1` (stereo not drawn) [Example 18, 4-[4-(4-trifluoromethyl-phenyl)-3,6-dihydro-2H-pyridine-1-sulfonyl]-indan-2-carboxylic acid], the pEC50 on PPAR-alpha is 4.00 to 5.30; at PPAR-delta, > 5.30; at PPAR-gamma, 4.00 to 5.30.

In the case of `O=C(O)C1CCc2ccc(S(=O)(=O)N3CCN(c4ccc(C(F)(F)F)cc4)CC3)cc21` (stereo not drawn) [Example 19, 6-[4-(4-trifluoromethyl-phenyl)-piperazine-1-sulfonyl]-indan-1-carboxylic acid], the pEC50 at PPAR-alpha, at PPAR-delta and at PPAR-gamma was > 5.30 in each case.

Consider `O=C(O)C1CCc2ccc(S(=O)(=O)N3CCN(c4ccc(C(F)(F)F)cn4)CC3)cc21` (stereo not drawn) [Example 20, 6-[4-(5-trifluoromethyl-pyridin-2-yl)-piperazine-1-sulfonyl]-indan-1-carboxylic acid], for which the pEC50 on PPAR-alpha, on PPAR-delta and at PPAR-gamma was > 5.30 throughout.

For the compound `O=C(O)C1CCc2ccc(S(=O)(=O)N3CCN(c4ccc5c(c4)OCO5)CC3)cc21` (stereo not drawn) [Example 21, 6-(4-Benzo[1,3]dioxol-5-yl-piperazine-1-sulfonyl)-indan-1-carboxylic acid], the pEC50 on PPAR-alpha, at PPAR-delta and on PPAR-gamma was 4.00 to 5.30 throughout.

`O=C(O)C1CCc2ccc(S(=O)(=O)N3CC=C(c4ccc(C(F)(F)F)cc4)CC3)cc21` (stereo not drawn) [Example 22, 6-[4-(4-trifluoromethyl-phenyl)-3,6-dihydro-2H-pyridine-1-sulfonyl]-indan-1-carboxylic acid]: the pEC50 on PPAR-alpha is > 5.30; at PPAR-delta, > 5.30; on PPAR-gamma, 4.00 to 5.30.

`C[C@H]1CN(c2ccc(C(F)(F)F)cn2)CCN1S(=O)(=O)c1ccc2c(c1)C(C(=O)O)CC2` (stereo partly drawn) [Example 23, 6-[2-(S)-methyl-4-(5-trifluoromethyl-pyridin-2-yl)-piperazine-1-sulfonyl]-indan-1-carboxylic acid]: the pEC50 on PPAR-alpha, at PPAR-delta and on PPAR-gamma was > 5.30 in each case.

Take `C[C@@H]1CN(c2ccc(C(F)(F)F)cn2)CCN1S(=O)(=O)c1ccc2c(c1)C(C(=O)O)CC2` (stereo partly drawn) [Example 24, 6-[2-(R)-methyl-4-(5-trifluoromethyl-pyridin-2-yl)-piperazine-1-sulfonyl]-indan-1-carboxylic acid]: the pEC50 on PPAR-alpha, on PPAR-delta and at PPAR-gamma was > 5.30 each time.

With `C[C@@H]1CN(S(=O)(=O)c2ccc3c(c2)C(C(=O)O)CC3)CCN1c1ccc(C(F)(F)F)cn1` (stereo partly drawn) [Example 25, 6-[3-(R)-methyl-4-(5-trifluoromethyl-pyridin-2-yl)-piperazine-1-sulfonyl]-indan-1-carboxylic acid], the negative logarithm of the EC50 (pEC50) at PPAR-alpha, at PPAR-delta and at PPAR-gamma was > 5.30 each time.

For the compound `O=C(O)C1CCc2ccc(S(=O)(=O)N3CCN(c4ccc(C(F)(F)F)c(F)c4)CC3)cc21` (stereo not drawn) [Example 26, 6-[4-(3-fluoro-4-trifluoromethyl-phenyl)-piperazine-1-sulfonyl]-indan-1-carboxylic acid], the negative-log EC50 (pEC50) at PPAR-alpha, at PPAR-delta and at PPAR-gamma was > 5.30 in each case.

In the case of `C[C@@H]1CN(c2ccc(C(F)(F)F)cn2)C[C@H](C)N1S(=O)(=O)c1ccc2c(c1)C(C(=O)O)CC2` (stereo partly drawn) [Example 27, 6-[cis-2,6-dimethyl-4-(5-trifluoromethyl-pyridin-2-yl)-piperazine-1-sulfonyl]-indan-1-carboxylic acid], the negative-log EC50 (pEC50) at PPAR-alpha is 4.00 to 5.30; on PPAR-delta it was > 5.30; on PPAR-gamma, 4.00 to 5.30.

As for `C[C@@H]1CN(c2ccc(C(F)(F)F)cn2)C[C@H](C)N1S(=O)(=O)c1ccc2c(c1)C(C)(C(=O)O)CC2` (stereo partly drawn) [Example 28, 6-[cis-2,6-dimethyl-4-(5-trifluoromethyl-pyridin-2-yl)-piperazine-1-sulfonyl]-1-methyl-indan-1-carboxylic acid], the pEC50 at PPAR-alpha is < 4.00; at PPAR-delta, > 5.30; at PPAR-gamma, 4.00 to 5.30.

As for `COc1cc2c(cc1S(=O)(=O)N1CCN(c3ccc(C(F)(F)F)cc3)CC1)CCC2CC(=O)O` (stereo not drawn) [Example 29, {6-methoxy-5-[4-(4-trifluoromethyl-phenyl)-piperazine-1-sulfonyl]-indan-1-yl}-acetic acid], the pEC50 at PPAR-alpha, at PPAR-delta and on PPAR-gamma was 4.00 to 5.30 throughout.

Regarding `COc1cc2c(cc1S(=O)(=O)N1CCN(c3ccc(Cl)c(Cl)c3)CC1)CCC2CC(=O)O` (stereo not drawn) [Example 30, {5-[4-(3,4-dichloro-phenyl)-piperazine-1-sulfonyl]-6-methoxy-indan-1-yl}-acetic acid], the pEC50 on PPAR-alpha, on PPAR-delta and on PPAR-gamma was 4.00 to 5.30 in each case.

Turning to `O=C(O)Cn1ccc2cc(S(=O)(=O)N3CCN(c4ccc(C(F)(F)F)cc4)CC3)ccc21` [Example 31, {5-[4-(4-Trifluoromethyl-phenyl)-piperazine-1-sulfonyl]-indol-1-yl}-acetic acid], the results for the pEC50 at PPAR-alpha, at PPAR-delta and on PPAR-gamma were < 4.00, 4.00 to 5.30 and < 4.00, respectively.

`O=C(O)Cn1ccc2cc(Br)c(S(=O)(=O)N3CCN(c4ccc(C(F)(F)F)cc4)CC3)cc21` [Example 32, {5-Bromo-6-[4-(4-trifluoromethyl-phenyl)-piperazine-1-sulfonyl]-indol-1-yl}-acetic acid]: the pEC50 at PPAR-alpha is < 4.00; on PPAR-delta it was > 5.30; at PPAR-gamma, 4.00 to 5.30.
